Results as given in patent publication EP0498222A1, “Novel peptides” (SUMITOMO CHEMICAL COMPANY LIMITED, priority 1991, dated 1992).
Positions of bridges follow the written chain, without caps; N, C: chain ends. Residues, ends and D or L forms follow the SMILES beside them.

Experiments:
[1] = system: last instar larvae of Pseudaletia separata; experiment: Effect on growth (body weight) of last instar larvae after injection; type: in vivo; conditions: 7 picomoles injected on day 0, day 1 and day 2 of last instar; weight checked until day 3; control about 2.5 times day 0 weight on day 3
Experimental: To examine the effect of peptide I-a on the growth of last instar larvae of Pseudaletia separata, last instar larvae of P. separata were injected with 7 picomoles of peptide I-a for consecutive three days (day 0, day 1 and day 2). They were reared on an artificial diet and the weight of each larva was checked until day 3. […] The open circles ( ⃝) indicate the body weights of the last instar larvae injected with 7 picomoles of peptide I-a on day 0, day 1 and day 2 while the closed circles (●) indicate the body weights of last instar larvae injected with Ringer's solution on day 0, day 1 and day 2.

[2] = system: JH esterase; experiment: JH esterase activity assay of hemolymph from injected larvae, (10-3H)JH I as substrate; type: in vivo, Pseudaletia separata; conditions: predetermined doses injected on day 1 and day 2; hemolymph collected on day 3
Experimental: The purified peptide I-a was diluted with Ringer's solution and injected, at a predetermined dose, into unparasitized last instar larvae of Pseudaletia separata on day 1 and day 2. The larvae were further reared on an artificial diet. On day 3, hemolymph was prepared from the larvae and centrifuged (500 x g, 4°C, 5 minutes). The supernatant thus collected was subjected to JH esterase activity assay. (10-³H)JH I was used as the substrate for activity assay and the JH-metabolizing activity was estimated based on the proportion of JH acid to the total product formed under the action of JH esterase.

[3] = system: unparasitized last instar larvae of Pseudaletia separata; experiment: Insect development controlling activity (growth stage checked at 24-hour intervals); type: in vivo; conditions: 7 picomoles injected on day 1 and day 2; control Ringer's solution
Experimental: The purified peptide I-a was dissolved with Ringer's solution and injected, at a dose of 7 picomoles, into unparasitized last instar larvae of Pseudaletia separata on day 1 and day 2. Then the growth stage (larva, prepupa, pupa, or dead) of each larva was checked at 24-hour intervals and the number of individuals in each stage was recorded. Control larvae were injected with Ringer's solution alone.

Q: With `CSCC[C@@H]1NC(=O)[C@H](Cc2ccc(O)cc2)NC(=O)CNC(=O)[C@H](C)NC(=O)[C@H](C(C)C)NC(=O)[C@@H](NC(=O)CNC(=O)CNC(=O)[C@H](CO)NC(=O)[C@H](Cc2ccccc2)NC(=O)[C@H](CC(N)=O)NC(=O)[C@@H](N)CCC(=O)O)CSSC[C@@H](C(=O)N[C@@H](CCCCN)C(=O)N2CCC[C@H]2C(=O)N[C@H](C(=O)N[C@@H](Cc2ccccc2)C(=O)N[C@@H](Cc2ccc(O)cc2)C(=O)N[C@@H](CCC(N)=O)C(N)=O)[C@@H](C)O)NC(=O)[C@H](CCCNC(=N)N)NC(=O)CNC(=O)[C@H](CC(=O)O)NC(=O)[C@@H]2CCCN2C(=O)[C@H]([C@@H](C)O)NC(=O)[C@H](CCCNC(=N)N)NC1=O` [peptide I-a] (H-ENFSGGCVAGYMRTPDGRCKPTFYQ-NH2; disulfide 7-19) as the molecule, how does the body weight change [1] read?
A: only slight increases in body weight

Q: And the JH esterase activity [2]?
A: repressed the JH esterase activity in a dose dependent manner

Q: And the “prepupal stage came later than in control larvae” value [3]?
A: 2 days

Q: And the “pupation later than in control larvae” value [3]?
A: more than 2 days
